Test results from patent publication US9695155B2, “Herbicidal substituted pyrimidinyloxy benzene compounds” (E. I. DU PONT DE NEMOURS AND COMPANY, priority 2013, dated 2017).

How the values were obtained:
Experiment in all cases: Test E preemergence
[1] = test system: corn; format: in vivo, Zea mays; settings: for Corn plant response rating: scale 0 to 100 (0 no effect, 100 complete control)
From the text: (§1) Seeds of plant species selected from corn (Zea mays), soybean (Glycine max), velvetleaf (Abutilon theophrasti), lambsquarters (Chenopodium album), wild poinsettia (Euphorbia heterophylla), palmer pigweed (Amaranthus palmeri), waterhemp (common waterhemp, Amaranthus rudis), surinam grass (Brachiaria decumbens), large (Lg) crabgrass (Digitaria sanguinalis), Brazilian crabgrass (Digitaria horizontalis), fall panicum (Panicum dichotomiflorum), giant foxtail (Setaria faberii), green foxtail (Setaria viridis), goosegrass (Eleusine indica), johnsongrass (Sorghum halepense), ragweed (common ragweed, Ambrosia elatior), barnyardgrass (Echinochloa crus-galli), sandbur (southern sandbur, Cenchrus echinatus), arrowleaf sida (Sida rhombifolia), Italian ryegrass (Lolium multiflorum), dayflower (Virginia (VA) dayflower, Commelina virginica), field bindweed (Convolvulus arvensis), morningglory (Ipomoea coccinea), nightshade (eastern black nightshade, Solanum ptycanthum), kochia (Kochia scoparia), yellow nutsedge (Cyperus esculentus), cocklebur (common cocklebur, Xanthium strumarium), smartweed (ladysthumb smartweed, and hairy beggarticks (Bidens pilosa), were planted into a silt loam soil and treated preemergence with test chemicals formulated in a non-phytotoxic solvent mixture which included a surfactant.
(§2) At the same time, plants from these crop and weed species and also horseweed (Canada horseweed, Conyza canadensis), waterhemp_RES1, (ALS & Triazine resistant common waterhemp, Amaranthus rudis), and waterhemp_RES2, (ALS & HPPD resistant common waterhemp, Amaranthus rudis) were planted in pots containing Redi-Earth® planting medium (Scotts Company, 14111 Scottslawn Road, Marysville, Ohio 43041) comprising spaghnum peat moss, vermiculite, wetting agent and starter nutrients were treated with postemergence applications of test chemicals formulated in the same manner. Plants ranged in height from 2 to 18 cm for postemergence treatments (1- to 4-leaf stage). Treated plants and controls were maintained in a greenhouse for 14 to 21 days, after which time all species were compared to controls and visually evaluated. Plant response ratings, summarized in Table E, are based on a scale of 0 to 100 where 0 is no effect and 100 is complete control. A dash (-) response means no test result.

[2] = test system: morningglory; format: in vivo, Ipomoea coccinea; settings: for Morningglory plant response rating: scale 0 to 100 (0 no effect, 100 complete control)
From the text: as §1, §2

[3] = test system: waterhemp; format: in vivo, Amaranthus rudis; settings: for Waterhemp plant response rating: scale 0 to 100 (0 no effect, 100 complete control)
From the text: as §1, §2

[4] = test system: giant foxtail; format: in vivo, Setaria faberii; settings: for Foxtail, Giant plant response rating: scale 0 to 100 (0 no effect, 100 complete control)
From the text: as §1, §2

[5] = test system: soybean; format: in vivo, Glycine max; settings: for Soybean plant response rating: scale 0 to 100 (0 no effect, 100 complete control)
From the text: as §1, §2

[6] = test system: Italian ryegrass; format: in vivo, Lolium multiflorum; settings: for Ryegrass, Italian plant response rating: scale 0 to 100 (0 no effect, 100 complete control)
From the text: as §1, §2

[7] = test system: goosegrass; format: in vivo, Eleusine indica; settings: for Goosegrass plant response rating: scale 0 to 100 (0 no effect, 100 complete control)
From the text: as §1, §2

[8] = test system: sandbur; format: in vivo, Cenchrus echinatus; settings: for Sandbur plant response rating: scale 0 to 100 (0 no effect, 100 complete control)
From the text: as §1, §2

[9] = test system: palmer pigweed; format: in vivo, Amaranthus palmeri; settings: for Pigweed, Palmer plant response rating: scale 0 to 100 (0 no effect, 100 complete control)
From the text: as §1, §2

[10] = test system: lambsquarters; format: in vivo, Chenopodium album; settings: for Lambsquarters plant response rating: scale 0 to 100 (0 no effect, 100 complete control)
From the text: as §1, §2

[11] = test system: surinam grass; format: in vivo, Brachiaria decumbens; settings: for Surinam Grass plant response rating: scale 0 to 100 (0 no effect, 100 complete control)
From the text: as §1, §2

[12] = 8 g ai/ha, scale 0 to 100, 0 is no effect, 100 is complete control
[13] = 125 g ai/ha, scale 0 to 100, 0 no effect, 100 complete control

Clc1cnc(Oc2ccccc2-n2cc(Br)cn2)nc1 [Compound 7, 2-[2-(4-bromo-1H-pyrazol-1-yl)phenoxy]-5-chloropyrimidine]
Plant response rating, Corn [1, 12]: 0
Corn plant response rating ([1]; 16 g ai/ha): 0
Corn plant response rating ([1]; 31 g ai/ha): 0
Corn plant response rating ([1]; 62 g ai/ha): 0
Plant response rating, Corn [1, 13]: 0
Plant response rating, Morningglory [2, 12]: 0
Morningglory plant response rating ([2]; 16 g ai/ha): 0
Morningglory plant response rating ([2]; 31 g ai/ha): 0
Morningglory plant response rating ([2]; 62 g ai/ha): 0
Plant response rating, Morningglory [2, 13]: 0
Plant response rating, Waterhemp [3, 12]: 95
Waterhemp plant response rating ([3]; 16 g ai/ha): 100
Waterhemp plant response rating ([3]; 31 g ai/ha): 100
Waterhemp plant response rating ([3]; 62 g ai/ha): 100
Plant response rating, Waterhemp [3, 13]: 100
Plant response rating, Foxtail, Giant [4, 12]: 15
Foxtail, Giant plant response rating ([4]; 16 g ai/ha): 20
Foxtail, Giant plant response rating ([4]; 31 g ai/ha): 20
Foxtail, Giant plant response rating ([4]; 62 g ai/ha): 40
Plant response rating, Foxtail, Giant [4, 13]: 90
Plant response rating, Soybean [5, 12]: 0
Soybean plant response rating ([5]; 16 g ai/ha): 0
Soybean plant response rating ([5]; 31 g ai/ha): 0
Soybean plant response rating ([5]; 62 g ai/ha): 40
Plant response rating, Soybean [5, 13]: 50
Plant response rating, Ryegrass, Italian [6, 12]: 0
Ryegrass, Italian plant response rating ([6]; 16 g ai/ha): 0
Ryegrass, Italian plant response rating ([6]; 31 g ai/ha): 0
Ryegrass, Italian plant response rating ([6]; 62 g ai/ha): 0
Plant response rating, Ryegrass, Italian [6, 13]: 20
Plant response rating, Goosegrass [7, 12]: 0
Goosegrass plant response rating ([7]; 16 g ai/ha): 0
Goosegrass plant response rating ([7]; 31 g ai/ha): 35
Goosegrass plant response rating ([7]; 62 g ai/ha): 40
Plant response rating, Goosegrass [7, 13]: 75
Plant response rating, Sandbur [8, 12]: 0
Sandbur plant response rating ([8]; 16 g ai/ha): 0
Sandbur plant response rating ([8]; 31 g ai/ha): 0
Sandbur plant response rating ([8]; 62 g ai/ha): 0
Plant response rating, Sandbur [8, 13]: 35
Plant response rating, Pigweed, Palmer [9, 12]: 0
Pigweed, Palmer plant response rating ([9]; 16 g ai/ha): 95
Pigweed, Palmer plant response rating ([9]; 31 g ai/ha): 85
Pigweed, Palmer plant response rating ([9]; 62 g ai/ha): 100
Plant response rating, Pigweed, Palmer [9, 13]: 100
Plant response rating, Lambsquarters [10, 12]: 0
Lambsquarters plant response rating ([10]; 16 g ai/ha): 0
Lambsquarters plant response rating ([10]; 31 g ai/ha): 75
Lambsquarters plant response rating ([10]; 62 g ai/ha): 98
Plant response rating, Lambsquarters [10, 13]: 100
Plant response rating, Surinam Grass [11, 12]: 0
Surinam Grass plant response rating ([11]; 16 g ai/ha): 0
Surinam Grass plant response rating ([11]; 31 g ai/ha): 0
Surinam Grass plant response rating ([11]; 62 g ai/ha): 10
Plant response rating, Surinam Grass [11, 13]: 35
